From patent publication US20170049843A1, “Hepatocyte Growth Factor Mimics as Therapeutic Agents” (WASHINGTON STATE UNIVERSITY, priority 2011, published 2017)
“Also recorded” adds a separate entry of the source. Where a SMILES comes first, the peptide text is derived from it. [ ]: non-standard residue; d: D form. dNle = CCCC[C@@H](N)C(=O)O; Ahx = NCCCCCC(=O)O

Key:
[1] = in vivo; conditions: male, Sprague-Dawley, rat, iv, 24 mg/kg
[2] = molecular target: T1, HGF (Homo sapiens, UniProt P14210); experiment: HGF dimerization; format: biochemical; conditions: analog at 10^−10M, 30 minute incubation with heparin
T1 construct: purchased R&D Systems (Minneapolis, Minn.)
Experimental: HGF dimerization was assessed using PAGE followed by silver staining (Kawas et al., 2011). Human HGF at a concentration of 0.08 ng/μl with or without 6-AH analogs was incubated with heparin at a final concentration of 5 μg/ml. Loading buffer was then added to each sample and the mixture separated by native PAGE using gradient Criterion XT precast gels (4-12% Bis-Tris; Biorad Laboratories, Hercules, Calif.). Next the gel was silver stained for the detection of the HGF monomers and dimers. Bands were quantitated from digital images using a UVP phosphoimager (Upland, Calif.).

[3] = tested on: MDCK cells; experiment: Inhibition of HGF-dependent scattering in MDCK cells; format: cell-based, canine; conditions: HGF 20 ng/ml, 48 h
Experimental: (§1) MDCK cells were grown to 100% confluency on the coverslips in six-well plates and washed twice with PBS. The confluent coverslips were then aseptically transferred to new six well plates containing 900 μl serum free DMEM. Norleual, Hinge peptide, and/or HGF (20 ng/ml) were added to appropriate wells. Control wells received PBS vehicle. Plates were incubated at 37° C. with 5% CO2 for 48 hours. Media was removed and cells were fixed with methanol. Cells were stained with Diff-Quik Wright-Giemsa (Dade-Behring, Newark, Del.) and digital images were taken. Coverslips were removed with forceps and more digital images were captured. Pixel quantification of images was achieved using Image J and statistics were performed using Prism 5 and InStat v.3.05.
as §1, with “h.” for “hours.”, “v.3.05 (GraphPad; San Diego, Calif.).” for “v.3.05.”

[4] = tested on: Met; experiment: Inhibition of HGF-dependent Met phosphorylation in HEK293 cells; format: cell-based, human; conditions: 10 min
Experimental: HEK293 cells were seeded in 6 well tissue culture plates and grown to 95% confluency in DMEM containing 10% FBS. The cells were serum deprived for 24 h prior to the treatment to reduce the basal levels of phospho-Met. Following serum starvation, cocktails comprised of vehicle and HGF with/without 6-AH analogs were prepared and pre-incubated for 30 min at room temperature. The cocktail was then added to the cells for 10 min to stimulate the Met receptor and downstream proteins. Cells were harvested using RIPA lysis buffer (Millipore; Billerica, Mass.) fortified with phosphatase inhibitor cocktails 1 and 2 (Sigma-Aldrich; St. Louis, Mo.). The lysate was clarified by centrifugation at 15,000 n×g for 15 min, protein concentrations were determined using the BCA total protein assay (Pierce), and then appropriate volumes of the lysates were diluted with 2× reducing Laemmli buffer and heated for ten min at 95° C. Samples containing identical amounts of protein were resolved using SDS-PAGE (Criterion, BioRad Laboratories), transferred to nitrocellulose, and blocked in Tris-buffered saline (TBS) containing 5% milk for 1 h at room temperature. The phospho-Met antibody were added to the blocking buffer at a final concentration of 1:1000 and incubated at 4° C. overnight with gentle agitation. The membranes were then washed several times with water and TBS ([…]), a 1:5000 dilution of horseradish-peroxidase conjugated goat anti-rabbit antiserum was added, and the membranes further incubated for 1 h at room temperature. Proteins were visualized using the Supersignal West Pico Chemiluminescent Substrate system (Pierce, Fenton, Mo.) and molecular weights determined by comparison to protein ladders (BenchMark, Invitrogen, and Kaleidoscope, BioRad). Film images were digitized and analyzed using a UVP phosphoimager.

[5] = Microsomal metabolism, rat liver microsomes; format: in vitro ADME; conditions: over 90 min, data not shown
[6] = tested on: MDCK cells; experiment: HGF-dependent MDCK cell proliferation (MTT); format: cell-based, canine; conditions: 10^−10 M, 4 days, HGF 10 ng/ml
Experimental: 5000 MDCK cells were seeded into the wells of a 96 well plates in 10% FBS DMEM. To induce cellular quiescence, the cells were serum deprived for 24 h prior to initiating the treatments. Following serum starvation, 10 ng/ml HGF alone and with various concentrations of 6-AH analogs or PBS vehicle were added to the media. The cells were allowed to grow under these conditions for 4 days with a daily addition of 6-AH analogs. On the fourth day, 1 mg/ml of 1-(4, 5-Dimethylthiazol-2-yl) 3, 5-diphenylformazan reagent (MTT, Sigma-Aldrich) prepared in PBS was added to the cells and incubated for 4 h. Dimethyl sulfoxide diluted in a 0.01M glycine buffer was added to solubilize the cell membranes and the absorbance of reduced MTT in the buffer was quantitated at 590 nm using a plate reader (Biotek Synergy 2, Winooski, Vt.). HGF-dependent proliferation was determined by subtracting the basal proliferation (in the absence of HGF) from total proliferation rates in groups containing HGF.

[7] = molecular target: T1, HGF; experiment: HGF binding, competition with 3H-Hinge
Experimental: The binding of 6-AH analogs to HGF was assessed by competition using a soluble binding assay. 250 μl of PBS containing human HGF (1.25 ng) were incubated with ^3H-Hinge, the central dimerization domain of HGF, in the presence of varying concentrations of 6-AH analogs between 10^−13 M to 10^−7M (half-log dilutions) for 40 min at 37° C. The incubates were then spun through Bio-Gel P6 spin columns (400 μl packed volume) for 1 min to separate free and bound ^3H-Hinge and the eluent was collected. Five milliliters of scintillation fluid was added to the eluent, which contained the HGF bound ^3H-Hinge, and was then counted using scintillation counter. Total disintegrations per minute of bound ^3H-Hinge were calculated based on machine counting efficiency. The Ki values for the binding of the peptides were determined using the Prism 5. Competition binding curves were performed in triplicate.

[8] = tested on: B16-F10 murine melanoma cells; experiment: B16-F10 melanoma lung colony formation; format: in vivo, mouse; conditions: C57BL/6 mice, daily IP 10 μg/kg/day or 100 μg/kg/day, 14 days
Experimental: Six to eight month old C57BL/6 mice were injected with 400,000 B16-F10 cells in 200 μl PBS by tail vein injection and subsequently received daily intraperitoneal injections of either D-Nle-X-Cys-NH—(CH2)5—CONH2 (10 μg/kg and 100 μg/kg) or a PBS vehicle control. Two weeks later, mice were anesthetized and lungs were perfused with PBS and removed. Photos were taken and lungs were solubilized in 1% Triton x-100, 20 mM Tris, 0.15 M NaCl, 2 mM EDTA, and 0.02% sodium azide. Samples were disrupted by sonication (Mixonix, Farmingdale, N.Y.) and spun. The supernatant was transferred to a 96 well plate and melanin absorbance at 410 nm was measured using a plate reader.

T1 sequence (P14210 32-728): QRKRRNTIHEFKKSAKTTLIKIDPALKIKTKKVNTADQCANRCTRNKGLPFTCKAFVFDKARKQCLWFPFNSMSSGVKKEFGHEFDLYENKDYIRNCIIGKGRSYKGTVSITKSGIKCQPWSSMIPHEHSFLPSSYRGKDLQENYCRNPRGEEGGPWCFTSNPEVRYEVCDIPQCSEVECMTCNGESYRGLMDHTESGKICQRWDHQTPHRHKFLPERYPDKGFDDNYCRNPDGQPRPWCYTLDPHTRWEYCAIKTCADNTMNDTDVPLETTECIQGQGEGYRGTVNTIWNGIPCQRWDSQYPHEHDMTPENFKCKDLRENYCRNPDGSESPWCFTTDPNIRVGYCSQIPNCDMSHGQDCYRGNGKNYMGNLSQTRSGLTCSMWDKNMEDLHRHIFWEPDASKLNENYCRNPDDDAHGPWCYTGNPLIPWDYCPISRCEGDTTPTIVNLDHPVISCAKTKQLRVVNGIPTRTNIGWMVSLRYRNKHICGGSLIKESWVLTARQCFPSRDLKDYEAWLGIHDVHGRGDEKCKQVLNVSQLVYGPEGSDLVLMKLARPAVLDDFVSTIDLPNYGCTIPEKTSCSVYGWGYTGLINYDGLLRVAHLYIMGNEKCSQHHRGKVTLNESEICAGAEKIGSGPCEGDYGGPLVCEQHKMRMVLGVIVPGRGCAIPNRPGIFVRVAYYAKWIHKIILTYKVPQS

| C0 [1] [µg/mL] | inhibition of HGF dimerization [2] | Phase I metabolism in rat liver microsomes [5] | affinity for HGF (in words) [7] | Compound | inhibition of HGF dimerization ([2]; listed as Tyr) | inhibition of HGF-dependent scattering in MDCK cells [3] | inhibition of HGF-dependent Met phosphorylation [4] | inhibition of HGF-dependent MDCK cell proliferation [6] | inhibition of HGF dimerization ([2]; listed as Cys) | pulmonary colonization by B16-F10 melanoma cells [8] |
| --- | --- | --- | --- | --- | --- | --- | --- | --- | --- | --- |
| 68.2 ± 32.2 | completely block HGF dimer formation | no detectable metabolism over 90 min | bind HGF with high affinity | CCCC[C@@H](N)C(=O)N[C@@H](Cc1ccc(O)cc1)C(=O)N[C@H](C(=O)NCCCCCC(N)=O)[C@@H](C)CC (H-[dNle]YI[Ahx]-NH2) | statistically different than the HGF treated group | different from the HGF alone group but not different from the control group | able to block Met auto-phosphorylation | marked inhibitory activity |  |  |
|  | completely block HGF dimer formation |  | bind HGF with high affinity | CCCC[C@@H](N)C(=O)N[C@@H](CS)C(=O)N[C@H](C(=O)NCCCCCC(N)=O)[C@@H](C)CC [D-Nle-Cys-Ile-NH—(CH2)5—CONH2] (H-[dNle]CI[Ahx]-NH2) |  | different from the HGF alone group but not different from the control group | able to block Met auto-phosphorylation | marked inhibitory activity | statistically different than the HGF treated group | suppressed pulmonary colonization; also recorded: radically prevented lung colonization; also recorded: obvious reduction in melanoma colonies |
